Measurements: patent publication US11053251B2, “GPR35 modulators” (Prometheus Biosciences, Inc., priority 2019, dated 2021)

The compounds below were run against Human GPR35 (Homo sapiens, UniProt Q9HC97, S294R) (assay: Alternative Beta-Arrestin Assay (JumpIn 294R Tango U2OS cells, LiveBLAzer-FRET B/G)). Details: Human GPR35 expressing JumpIn 294R Tango U2OS cells, 5 hours treatment.
Assay type: cell-based
Protocol: Human GPR35 expressing JumpIn (Thermo Fisher) 294R Tango U2OS cells were plated in 384-well format in clear bottom plates at a cell density of 10,000 cells/well and allowed to grow overnight. The next day, cells were treated with serially diluted test compounds for 5 hours. LiveBLAzer-FRET B/G (CCF4-AM) detection reagents were then added and cells were allowed to incubate for 2 hours before reading plates on a BioTek Cytation 5 plate reader. Zaprinast was used as a positive control for dose-response curves. In order to determine EC50 values, data w ere fit to a four-parameter dose-response curves.

Chain of Human GPR35 (Q9HC97 whole entry S294R): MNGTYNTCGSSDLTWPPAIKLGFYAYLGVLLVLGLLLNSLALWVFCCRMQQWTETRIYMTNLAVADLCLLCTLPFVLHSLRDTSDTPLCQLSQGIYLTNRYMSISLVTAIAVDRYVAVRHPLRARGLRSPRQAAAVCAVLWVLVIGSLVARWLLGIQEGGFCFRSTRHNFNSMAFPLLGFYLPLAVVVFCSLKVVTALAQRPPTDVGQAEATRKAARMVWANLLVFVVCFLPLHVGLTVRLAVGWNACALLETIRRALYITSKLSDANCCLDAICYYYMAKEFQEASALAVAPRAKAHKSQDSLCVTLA

EC50, ≤ 10 µM:
CCOc1cc(-c2ccc(O)c(CCC(=O)O)c2)ccc1-c1nc2[nH]nnc2c(=O)[nH]1 [Compound 309, 3-(3′-ethoxy-4-hydroxy-4′-(7-oxo-6,7-dihydro-3H-[1,2,3]triazolo[4,5-d]pyrimidin-5-yl)-[1,1′-biphenyl]-3-yl)propanoic acid]
O=C(O)c1ccc(O)c(-c2ccc(-c3nc4[nH]nnc4c(=O)[nH]3)c(OC3CCCC3)c2)c1 [Compound 210, 3′-(Cyclopentyloxy)-6-hydroxy-4′-(7-oxo-6,7-dihydro-3H-[1,2,3]triazolo[4,5-d]pyrimidin-5-yl)-[1,1′-biphenyl]-3-carboxylic acid]
CCOc1cc(-c2nc(C(=O)O)co2)ccc1-c1nc2[nH]nnc2c(=O)[nH]1 [Compound 188, 2-(3-ethoxy-4-(7-oxo-6,7-dihydro-3H-[1,2,3]triazolo[4,5-d]pyrimidin-5-yl)phenyl)oxazole-4-carboxylic acid]
O=C(O)c1cccc(-c2ccc(-c3nc4[nH]nnc4c(=O)[nH]3)c(OC3CCCC3)c2)c1O [Compound 209, 3′-(Cyclopentyloxy)-2-hydroxy-4′-(7-oxo-6,7-dihydro-3H-[1,2,3]triazolo[4,5-d]pyrimidin-5-yl)-[1,1′-biphenyl]-3-carboxylic acid]
CCOc1cc(-c2cc(F)cc(O[C@H](C)C(=O)O)c2)ccc1-c1nc2[nH]nnc2c(=O)[nH]1 (single isomer, unassigned) [Compound 262]
O=C(O)c1ccc(-c2ccc(-c3nc4[nH]nnc4c(=O)[nH]3)c(OC3CCCC3)c2)cc1O [Compound 201, 3′-(Cyclopentyloxy)-3-hydroxy-4′-(7-oxo-6,7-dihydro-3H-[1,2,3]triazolo[4,5-d]pyrimidin-5-yl)-[1,1′-biphenyl]-4-carboxylic acid]
CCCC(Oc1cccc(-c2ccc(-c3nc4[nH]nnc4c(=O)[nH]3)c(OCC)c2)c1)C(=O)O (stereo not drawn) [Compound 248, 2-((3′-ethoxy-4′-(7-oxo-6,7-dihydro-3H-[1,2,3]triazolo[4,5-d]pyrimidin-5-yl)-[1,1′-biphenyl]-3-yl)oxy)pentanoic acid]
CCOc1cc(-c2cccc(C(C)C(=O)O)c2)ccc1-c1nc2[nH]nnc2c(=O)[nH]1 (stereo not drawn) [Compound 297, 2-(3′-ethoxy-4′-(7-oxo-6,7-dihydro-3H-[1,2,3]triazolo[4,5-d]pyrimidin-5-yl)-[1,1′-biphenyl]-3-yl)propanoic acid]
CCOc1cc(-c2cccc(NC(C)(C)C(=O)O)c2)ccc1-c1nc2[nH]nnc2c(=O)[nH]1 [Compound 224, 2-((3′-Ethoxy-4′-(7-oxo-6,7-dihydro-3H-[1,2,3]triazolo[4,5-d]pyrimidin-5-yl)-[1,1′-biphenyl]-3-yl)amino)-2-methylpropanoic acid]
CCOc1cc(-c2cc(F)c(O)c(F)c2)ccc1-c1nc2[nH]nnc2c(=O)[nH]1 [Compound 203, 5-(3-Ethoxy-3′,5′-difluoro-4′-hydroxy-[1,1′-biphenyl]-4-yl)-3,6-dihydro-7H-[1,2,3]triazolo[4,5-d]pyrimidin-7-one]
CCOc1cc(-c2cc(C)cc(O[C@H](C)C(=O)O)c2)ccc1-c1nc2[nH]nnc2c(=O)[nH]1 [Compound 266, (R)-2-((3′-ethoxy-5-methyl-4′-(7-oxo-6,7-dihydro-3H-[1,2,3]triazolo[4,5-d]pyrimidin-5-yl)-[1,1′-biphenyl]-3-yl)oxy)propanoic acid]
CCOc1cc(-c2ccc(C(=O)O)c(OCC(=O)O)c2)ccc1-c1nc2[nH]nnc2c(=O)[nH]1 [Compound 220, 3-(Carboxymethoxy)-3′-ethoxy-4′-(7-oxo-6,7-dihydro-3H-[1,2,3]triazolo[4,5-d]pyrimidin-5-yl)-[1,1′-biphenyl]-4-carboxylic acid]
CCOc1cc(-c2ccc(OC(C)C)c(CC(C)C(=O)O)c2)ccc1-c1nc2[nH]nnc2c(=O)[nH]1 (stereo not drawn) [Compound 302, 3-(3′-ethoxy-4-isopropoxy-4′-(7-oxo-6,7-dihydro-3H-[1,2,3]triazolo[4,5-d]pyrimidin-5-yl)-[1,1′-biphenyl]-3-yl)-2-methylpropanoic acid]
CCOc1cc(-c2cccc([C@@H]3C[C@H]3C(=O)O)c2)ccc1-c1nc2[nH]nnc2c(=O)[nH]1 (single isomer, unassigned) [Compound 279, trans-2-(3′-ethoxy-4′-(7-oxo-6,7-dihydro-3H-[1,2,3]triazolo[4,5-d]pyrimidin-5-yl)-[1,1′-biphenyl]-3-yl)cyclopropane-1-carboxylic acid]
O=C(O)c1ccc(-c2ccc(-c3nc4[nH]nnc4c(=O)[nH]3)cc2NCc2ccccc2)cc1 [Compound 290, 2′-(benzylamino)-4′-(7-oxo-6,7-dihydro-3H-[1,2,3]triazolo[4,5-d]pyrimidin-5-yl)-[1,1′-biphenyl]-4-carboxylic acid]
CCOc1cc(-c2ccc(OCCN3CCCC3)c(/C=C/C(=O)O)c2)ccc1-c1nc2[nH]nnc2c(=O)[nH]1 [Compound 317, (E)-3-(3′-ethoxy-4′-(7-oxo-6,7-dihydro-3H-[1,2,3]triazolo[4,5-d]pyrimidin-5-yl)-4-(2-(pyrrolidin-1-yl)ethoxy)-[1,1′-biphenyl]-3-yl)acrylic acid]
CCOc1cc(-c2cccc(/C=C(\C)C(=O)O)c2)ccc1-c1nc2[nH]nnc2c(=O)[nH]1 (single isomer, unassigned) [Compound 237, (E)-3-(3′-ethoxy-4′-(7-oxo-6,7-dihydro-3H-[1,2,3]triazolo[4,5-d]pyrimidin-5-yl)-[1,1′-biphenyl]-3-yl)-2-methylacrylic acid]
CC(Oc1cccc(-c2ccc(-c3nc4[nH]nnc4c(=O)[nH]3)c(OC3CCCC3)c2)c1)C(=O)O (stereo not drawn) [Compound 250, 2-((3′-(cyclopentyloxy)-4′-(7-oxo-6,7-dihydro-3H-[1,2,3]triazolo[4,5-d]pyrimidin-5-yl)-[1,1′-biphenyl]-3-yl)oxy)propanoic acid]
CCOc1cc(-c2cccc([C@@H]3C[C@H]3C(=O)O)c2)ccc1-c1nc2[nH]nnc2c(=O)[nH]1 (single isomer, unassigned) [Compound 278, trans-2-(3′-ethoxy-4′-(7-oxo-6,7-dihydro-3H-[1,2,3]triazolo[4,5-d]pyrimidin-5-yl)-[1,1′-biphenyl]-3-yl)cyclopropane-1-carboxylic acid]
CCOc1cc(-c2ccc(OCCN3CCCC3)c(CCC(=O)O)c2)ccc1-c1nc2[nH]nnc2c(=O)[nH]1 [Compound 318, 3-(3′-ethoxy-4′-(7-oxo-6,7-dihydro-3H-[1,2,3]triazolo[4,5-d]pyrimidin-5-yl)-4-(2-(pyrrolidin-1-yl)ethoxy)-[1,1′-biphenyl]-3-yl)propanoic acid]
COc1cc(-c2nc3[nH]nnc3c(=O)[nH]2)cc(OC)c1-c1ccc(C(=O)O)cc1 [Compound 196, 2′,6′-Dimethoxy-4′-(7-oxo-6,7-dihydro-3H-[1,2,3]triazolo[4,5-d]pyrimidin-5-yl)-[1,1′-biphenyl]-4-carboxylic acid]
CCOc1cc(-c2ccc3c(c2)CC(C)(C)C(=O)O3)ccc1-c1nc2[nH]nnc2c(=O)[nH]1 [Compound 305, 5-(4-(3,3-dimethyl-2-oxochroman-6-yl)-2-ethoxyphenyl)-3,6-dihydro-7H-[1,2,3]triazolo[4,5-d]pyrimidin-7-one]
CCOc1cc(-c2ccc(F)c(O[C@H](C)C(=O)O)c2)ccc1-c1nc2[nH]nnc2c(=O)[nH]1 [Compound 264, (R)-2-((3′-ethoxy-4-fluoro-4′-(7-oxo-6,7-dihydro-3H-[1,2,3]triazolo[4,5-d]pyrimidin-5-yl)-[1,1′-biphenyl]-3-yl)oxy)propanoic acid]
CCOc1cc(-c2cccc(OC(C(=O)O)C(C)C)c2)ccc1-c1nc2[nH]nnc2c(=O)[nH]1 (stereo not drawn) [Compound 269, 2-((3′-ethoxy-4′-(7-oxo-6,7-dihydro-3H-[1,2,3]triazolo[4,5-d]pyrimidin-5-yl)-[1,1′-biphenyl]-3-yl)oxy)-3-methylbutanoic acid]
CCOc1cc(-c2cc(O)cc(O[C@@H](CC)C(=O)O)c2)ccc1-c1nc2[nH]nnc2c(=O)[nH]1 (single isomer, unassigned) [Compound 259]
CCOc1cc(-c2ccc(C)c(OC(CC)C(=O)O)c2)ccc1-c1nc2[nH]nnc2c(=O)[nH]1 (stereo not drawn) [Compound 272, 2-((3′-ethoxy-4-methyl-4′-(7-oxo-6,7-dihydro-3H-[1,2,3]triazolo[4,5-d]pyrimidin-5-yl)-[1,1′-biphenyl]-3-yl)oxy)butanoic acid]
CCOc1cc(-c2cccc([C@@H]3C[C@@H]3C(=O)O)c2)ccc1-c1nc2[nH]nnc2c(=O)[nH]1 (racemic) [Compound 306, rac-cis-2-(3′-ethoxy-4′-(7-oxo-6,7-dihydro-3H-[1,2,3]triazolo[4,5-d]pyrimidin-5-yl)-[1,1′-biphenyl]-3-yl)cyclopropane-1-carboxylic acid]
CCOc1cc(-c2cccc(CC(CC)C(=O)O)c2)ccc1-c1nc2[nH]nnc2c(=O)[nH]1 (single isomer, unassigned) [Compound 241, 2-((3′-ethoxy-4′-(7-oxo-6,7-dihydro-3H-[1,2,3]triazolo[4,5-d]pyrimidin-5-yl)-[1,1′-biphenyl]-3-yl)methyl)butanoic acid]
CCOc1cc(-c2cc(OCC(=O)OC)cc(C(=O)OC)c2)ccc1-c1nc2[nH]nnc2c(=O)[nH]1 [Compound 218, Methyl 3′-ethoxy-5-(2-methoxy-2-oxoethoxy)-4′-(7-oxo-6,7-dihydro-3H-[1,2,3]triazolo[4,5-d]pyrimidin-5-yl)-[1,1′-biphenyl]-3-carboxylate]
CCOc1cc(-c2ccc(C(=O)O)o2)ccc1-c1nc2[nH]nnc2c(=O)[nH]1 [Compound 189, 5-(3-ethoxy-4-(7-oxo-6,7-dihydro-3H-[1,2,3]triazolo[4,5-d]pyrimidin-5-yl)phenyl)furan-2-carboxylic acid]
